Data taken from patent publication US11149035B2, “Chemical compounds as H—PGDS inhibitors” (GlaxoSmithKline Intellectual Property Development Limited, priority 2017, dated 2021).

Biological target: T1, haematopoietic prostaglandin D synthase (H-PGDS) (Homo sapiens, UniProt O60760)
T1 construct: Full length human H-PGDS cDNA (Invitrogen Ultimate ORF IOH13026) was amplified by PCR; 6-His (N); TEV protease cleavage site (N); made in house; host or cells: E. coli BL21 (DE3*)
Test: H-PGDS RapidFire high throughput mass spectrometry assay (conversion of PGH2 to PGD2)
Type: biochemical
Conditions: 10 nM H-PGDS, PGH2 formed in situ by COX-2 from arachidonic acid; four parameter curve fit; read-out: Potency Range (mean pIC50) (converted)
In short: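 His-tagged full-length human H-PGDS from E. coli converts PGH2, generated in situ at ~10 μM from arachidonic acid by FLAG-tagged human COX-2 from Sf9 cells. RapidFire SPE-triple quadrupole MS measures PGD2 against PGF2α as substrate surrogate; percent conversion is calculated.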

T1 sequence (O60760 whole entry): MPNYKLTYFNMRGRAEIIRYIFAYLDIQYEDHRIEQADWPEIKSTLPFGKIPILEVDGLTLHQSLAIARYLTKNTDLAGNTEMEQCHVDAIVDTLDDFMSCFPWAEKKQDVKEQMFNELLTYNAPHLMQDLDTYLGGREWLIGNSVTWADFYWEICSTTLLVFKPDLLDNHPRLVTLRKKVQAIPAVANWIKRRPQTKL

Row | SMILES | IC50
1 | CC(C)(O)[C@H]1CC[C@H](NC(=O)c2cnc3nc(N4CCC4)ncc3c2)CC1 [Example 79, 2-(Azetidin-1-yl)-N-((trans)-4-(2-hydroxypropan-2-yl)cyclohexyl)pyrido[2,3-d]pyrimidine-6-carboxamide] | 10 to 79.4 nM
2 | COc1ncc2cc(C(=O)N[C@H]3CC[C@H](C(C)(C)O)CC3)cnc2n1 [Example 80, N-((trans)-4-(2-Hydroxypropan-2-yl)cyclohexyl)-2-methoxypyrido[2,3-d]pyrimidine-6-carboxamide] | 100 to 1000 nM
